# Experimental data as given in patent publication US12256735B2, “Insecticidal combinations” (UPL LTD, priority 2018, dated 2025).
# How the values were obtained:
# mites in Brinjal = assay: Trial of efficacy on mites in Brinjal; assay type: in vivo
# Experimental: Trials were conducted to test the efficacy of the combination of Chlorantraniliprole+Bifenthrin+Bifenazate on mites in Brinjal: […]
# Lucinodes arbonalis = assay: Trial of efficacy on Lucinodes arbonalis in Brinjal; assay type: in vivo
# Experimental: Trials were conducted to test the efficacy of the combination of Chlorantraniliprole+Bifenthrin+Bifenazate on Lucinodes arbonalis in Brinjal: […]
structure (smiles),measurement,setting,value
CNC(=O)c1cc(Cl)cc(C)c1NC(=O)c1cc(Br)nn1-c1ncccc1Cl [Chlorantraniliprole],% mortality 3 DAA,mites in Brinjal; dose 30 gm. ai/ha,9.9%
same,% mortality 7 DAA,mites in Brinjal; dose 30 gm. ai/ha,8.9%
same,% mortality 10 DAA,mites in Brinjal; dose 30 gm. ai/ha,7.9%
same,% mortality 14 DAA,mites in Brinjal; dose 30 gm. ai/ha,10.9%
same,% mortality 3 DAA,Lucinodes arbonalis; dose 30 gm. ai/ha,80%
same,% mortality 7 DAA,Lucinodes arbonalis; dose 30 gm. ai/ha,90.1%
same,% mortality 10 DAA,Lucinodes arbonalis; dose 30 gm. ai/ha,89.1%
same,% mortality 14 DAA,Lucinodes arbonalis; dose 30 gm. ai/ha,79%
Cc1c(COC(=O)[C@@H]2[C@H](/C=C(\Cl)C(F)(F)F)C2(C)C)cccc1-c1ccccc1 (racemic) [Bifenthrin],% mortality 3 DAA,mites in Brinjal; dose 40 gm. ai/ha,75%
same,% mortality 7 DAA,mites in Brinjal; dose 40 gm. ai/ha,80%
same,% mortality 10 DAA,mites in Brinjal; dose 40 gm. ai/ha,75%
same,% mortality 14 DAA,mites in Brinjal; dose 40 gm. ai/ha,65%
same,% mortality 3 DAA,Lucinodes arbonalis; dose 40 gm. ai/ha,55%
same,% mortality 7 DAA,Lucinodes arbonalis; dose 40 gm. ai/ha,65%
same,% mortality 10 DAA,Lucinodes arbonalis; dose 40 gm. ai/ha,53%
same,% mortality 14 DAA,Lucinodes arbonalis; dose 40 gm. ai/ha,41%
COc1ccc(-c2ccccc2)cc1NNC(=O)OC(C)C [Bifenazate],% mortality 3 DAA,mites in Brinjal; dose 150 gm. ai/ha,65%
same,% mortality 7 DAA,mites in Brinjal; dose 150 gm. ai/ha,95.1%
same,% mortality 10 DAA,mites in Brinjal; dose 150 gm. ai/ha,85%
same,% mortality 14 DAA,mites in Brinjal; dose 150 gm. ai/ha,75%
same,% mortality 3 DAA,Lucinodes arbonalis; dose 150 gm. ai/ha,9.9%
same,% mortality 7 DAA,Lucinodes arbonalis; dose 150 gm. ai/ha,12%
same,% mortality 10 DAA,Lucinodes arbonalis; dose 150 gm. ai/ha,10.9%
same,% mortality 14 DAA,Lucinodes arbonalis; dose 150 gm. ai/ha,7.9%
